Measured values: patent US20240360101A1, “PHARMACEUTICAL SALTS OF A CHK-1 INHIBITOR” (SENTINEL ONCOLOGY LIMITED, priority 2021, published 2024)
Where a name gives a salt, the structure may show the parent alone. Blank lines part the entries; values can stand above or below the molecule they belong to.

Columns and labels:
[1] = Solubility of the salts in biorelevant media; format: physicochemical; conditions: for solubility FaSSGF (pH 1.37): Fasted State Simulated Gastric Fluid; for solubility FaSSGF (pH 1.37) / solubility FeSSIF (pH 5.14) / solubility FaSSIF (pH 6.71): 25° C., 24 h, HPLC; for solubility FeSSIF (pH 5.14): Fed State Simulated Intestinal Fluid; for solubility FaSSIF (pH 6.71): Fasted State Simulated Intestinal Fluid; for solubility in FaSSGF (gastric fluid) compared with the free base: result in words
Procedure: Biorelevant media (DI H2O, FeSSIF, FaSSIF and FaSSGF) (2 mL) was charged. Samples were left to equilibrate (25° C.) over 24 h. Solubility measurements were taken using HPLC (see Method 1 above).

[2] = Gravimetric vapour sorption (GVS); format: physicochemical; conditions: for GVS weight loss, initial desorption cycle: from 50% RH to 0% RH; for GVS water gain, subsequent sorption cycle: up to 90% RH; for crystalline form (XRPD) after GVS at extremes of humidity: 0% RH and 90% RH, result in words
Procedure: Sorption isotherms were obtained using a Hiden Isochema moisture sorption analyser (model IGAsorp), controlled by IGAsorp Systems Software V6.50.48. The sample was maintained at a constant temperature (25° C.) by the instrument controls. The humidity was controlled by mixing streams of dry and wet nitrogen, with a total flow of 250 ml·min−. The instrument was verified for relative humidity (RH) content by measuring three calibrated Rotronic salt solutions (10-50-88%). The weight change of the sample was monitored as a function of humidity by a microbalance (accuracy+/−0.005 mg). A defined amount of sample was placed in a tared mesh stainless steel basket under ambient conditions. A full experimental cycle typically consisted of three scans (sorption, desorption and sorption) at a constant temperature (25° C.) and 10% RH intervals over a 0-90% range (60 minutes for each humidity level).

[3] = Two-week stability (HPLC purity); format: physicochemical; conditions: two-week storage at 25° C./60% RH and 40° C./75% RH; result in words
Procedure: HPLC analysis was carried out on an Agilent 1110/1200 series HPLC system. The column used was an Triart C18; 150×4.6 mm, 3.0 μm particle size (Ex Waters, PN: 186004644). The flow rate was 1.0 mL/min. Mobile phase A was Water:Trifluoroacetic acid (100:0.1%) and mobile phase B was Acetonitrile:Trifluoroacetic acid (100:0.1%). Detection was by UV at 302 nm. The injection volume was 5 μL, column temperature 40° C. and the following gradient was used: […]
Experimental: Maleate salt pattern B (30 mg) was placed into separate 15 mL type I glass vials. To these vials, a HDPE plastic cap was loosely attached to allow the ingress of moisture. The vials were then placed into ICH rated stability cabinets at 25° C./60% RH and 40° C./75% RH and in cold storage at 2-8° C. Following 2 weeks of storage these samples were removed from the stability cabinets and cold storage and the chemical purity assessed by HPLC (method 2). The relevant data was collected using a wavelength of 302 nm. The samples were prepared in MeCN:water (1:1).

solubility FaSSGF (pH 1.37) [1]: 3.24 mg/mL
solubility FeSSIF (pH 5.14) [1]: 0.27 mg/mL
Aqueous solubility mg/mL 24 h: 7.41 mg/mL
GVS sharp increase, sorption cycle ([2]; between 30% RH and 40% RH): ~3 wt %
GVS weight loss, initial desorption cycle ([2]; 25° C.): 5 wt %
GVS water gain, subsequent sorption cycle ([2]; 25° C.): 7.5%
Structure (SMILES): COc1cc(C2(F)CCN(C)CC2)ccc1-c1cc(Nc2cnc(C#N)cn2)n[nH]1 [malonate pattern B, 5-[[5-[4-(4-fluoro-1-methyl-4-piperidyl)-2-methoxy-phenyl]-1H-pyrazol-3-yl]amino]pyrazine-2-carbonitrile]

GVS weight gain at 90% RH, following sorption cycles ([2]; 90% RH, following sorption cycles): 4 wt %
GVS water loss, subsequent desorption cycle ([2]; down to 0% RH, 25° C.): 4%
GVS weight gain, initial sorption cycle ([2]; from 50% RH to 90% RH, 25° C.): 1.5 wt %
Structure (SMILES): COc1cc(C2(F)CCN(C)CC2)ccc1-c1cc(Nc2cnc(C#N)cn2)n[nH]1 [Maleate Pattern A, 5-[[5-[4-(4-fluoro-1-methyl-4-piperidyl)-2-methoxy-phenyl]-1H-pyrazol-3-yl]amino]pyrazine-2-carbonitrile]
crystalline form (XRPD) after GVS at extremes of humidity [2]: A new pattern was isolated at 0 and 90% RH and was named B

crystalline form (XRPD) after GVS at extremes of humidity [2]: No form change at 0% RH and 90% RH
GVS sharp decrease, initial desorption ([2]; from 10% RH to 0% RH): ~3 wt %
GVS steady increase, subsequent sorption ([2]; from 10% RH to 90% RH): ~1%
GVS weight loss, initial desorption cycle ([2]; 25° C.): 3.5 wt %
GVS steady decrease, initial desorption ([2]; from 50% RH to 10% RH): 0.5 wt %
GVS sharp water gain, subsequent sorption ([2]; up to 10% RH): ~3%
Structure (SMILES): COc1cc(C2(F)CCN(C)CC2)ccc1-c1cc(Nc2cnc(C#N)cn2)n[nH]1 [Tosylate Pattern A, 5-[[5-[4-(4-fluoro-1-methyl-4-piperidyl)-2-methoxy-phenyl]-1H-pyrazol-3-yl]amino]pyrazine-2-carbonitrile]

solubility FaSSGF (pH 1.37) [1]: 0.55 mg/mL
solubility FaSSIF (pH 6.71) [1]: 0.04 mg/mL
solubility FeSSIF (pH 5.14) [1]: 0.57 mg/mL
Aqueous solubility mg/mL 24 h: 1.18 mg/mL
GVS weight loss, initial desorption cycle ([2]; 25° C.): 1 wt %
GVS water gain, subsequent sorption cycle ([2]; 25° C.): ~2.25%
Structure (SMILES): COc1cc(C2(F)CCN(C)CC2)ccc1-c1cc(Nc2cnc(C#N)cn2)n[nH]1 [besylate pattern B, 5-[[5-[4-(4-fluoro-1-methyl-4-piperidyl)-2-methoxy-phenyl]-1H-pyrazol-3-yl]amino]pyrazine-2-carbonitrile]

solubility in FaSSGF (gastric fluid) compared with the free base ([1]; maleate): improved solubility in gastric fluid
Structure (SMILES): COc1cc(C2(F)CCN(C)CC2)ccc1-c1cc(Nc2cnc(C#N)cn2)n[nH]1 [maleate salt, 5-[[5-[4-(4-fluoro-1-methyl-4-piperidyl)-2-methoxy-phenyl]-1H-pyrazol-3-yl]amino]pyrazine-2-carbonitrile maleate]
solubility in FaSSGF (gastric fluid) compared with the free base ([1]; listed as maleate, maleate): improved solubility over the free base in FaSSGF
physical, polymorphic and chemical stability on storage [3]: remained as a free flowing solid with no evidence of deliquescence or agglomeration and no change in polymorphic form with good chemical stability

GVS sharp increase, sorption cycle ([2]; from 40% RH to 60% RH): 6%
GVS weight loss, initial desorption cycle ([2]; 25° C.): 2.5 wt %
GVS steady decrease, following desorption cycle ([2]; from 90% RH to 30% RH): ~3 wt %
GVS water gain, subsequent sorption cycle ([2]; 25° C.): 10%
Structure (SMILES): COc1cc(C2(F)CCN(C)CC2)ccc1-c1cc(Nc2cnc(C#N)cn2)n[nH]1 [Besylate Pattern A, 5-[[5-[4-(4-fluoro-1-methyl-4-piperidyl)-2-methoxy-phenyl]-1H-pyrazol-3-yl]amino]pyrazine-2-carbonitrile]

Aqueous solubility mg/mL 24 h: 0.06 mg/mL
Structure (SMILES): COc1cc(C2(F)CCN(C)CC2)ccc1-c1cc(Nc2cnc(C#N)cn2)n[nH]1 [bis-besylate pattern B, 5-[[5-[4-(4-fluoro-1-methyl-4-piperidyl)-2-methoxy-phenyl]-1H-pyrazol-3-yl]amino]pyrazine-2-carbonitrile]

solubility FaSSGF (pH 1.37) [1]: 0.32 mg/mL
solubility FaSSIF (pH 6.71) [1]: 0.04 mg/mL
solubility FeSSIF (pH 5.14) [1]: 0.61 mg/mL
Aqueous solubility mg/mL 24 h: 1.55 mg/mL
Structure (SMILES): COc1cc(C2(F)CCN(C)CC2)ccc1-c1cc(Nc2cnc(C#N)cn2)n[nH]1 [tosylate pattern C, 5-[[5-[4-(4-fluoro-1-methyl-4-piperidyl)-2-methoxy-phenyl]-1H-pyrazol-3-yl]amino]pyrazine-2-carbonitrile]

Aqueous solubility mg/mL 24 h: 1.6 mg/mL
Structure (SMILES): COc1cc(C2(F)CCN(C)CC2)ccc1-c1cc(Nc2cnc(C#N)cn2)n[nH]1 [sulphate pattern D, 5-[[5-[4-(4-fluoro-1-methyl-4-piperidyl)-2-methoxy-phenyl]-1H-pyrazol-3-yl]amino]pyrazine-2-carbonitrile]

GVS weight loss, initial desorption cycle ([2]; 25° C.): 1 wt %
GVS water gain, subsequent sorption cycle ([2]; 25° C.): ~2.25%
Structure (SMILES): COc1cc(C2(F)CCN(C)CC2)ccc1-c1cc(Nc2cnc(C#N)cn2)n[nH]1 [Naphthalene-2-Sulfonate Pattern A, 5-[[5-[4-(4-fluoro-1-methyl-4-piperidyl)-2-methoxy-phenyl]-1H-pyrazol-3-yl]amino]pyrazine-2-carbonitrile]
crystalline form (XRPD) after GVS at extremes of humidity [2]: no change in the crystallinity of the solid occurred at extremes of humidity

GVS sharp increase, sorption cycle ([2]; between 0% RH and 20% RH): ~2.5 wt %
GVS weight loss, initial desorption cycle ([2]; 25° C.): ~3 wt %
GVS water gain, subsequent sorption cycle ([2]; 25° C.): 3.75%
Structure (SMILES): COc1cc(C2(F)CCN(C)CC2)ccc1-c1cc(Nc2cnc(C#N)cn2)n[nH]1 [Besylate Pattern C, 5-[[5-[4-(4-fluoro-1-methyl-4-piperidyl)-2-methoxy-phenyl]-1H-pyrazol-3-yl]amino]pyrazine-2-carbonitrile]

Structure (SMILES): COc1cc(C2(F)CCN(C)CC2)ccc1-c1cc(Nc2cnc(C#N)cn2)n[nH]1 [malonate, 5-[[5-[4-(4-fluoro-1-methyl-4-piperidyl)-2-methoxy-phenyl]-1H-pyrazol-3-yl]amino]pyrazine-2-carbonitrile]
solubility in FaSSGF (gastric fluid) compared with the free base [1]: improved solubility over the free base in FaSSGF

solubility FaSSGF (pH 1.37) [1]: 8.39 mg/mL
solubility FaSSIF (pH 6.71) [1]: 0.15 mg/mL
solubility FeSSIF (pH 5.14) [1]: 0.61 mg/mL
Aqueous solubility mg/mL 24 h: 10.37 mg/mL
Structure (SMILES): COc1cc(C2(F)CCN(C)CC2)ccc1-c1cc(Nc2cnc(C#N)cn2)n[nH]1 [hydrochloride pattern C, 5-[[5-[4-(4-fluoro-1-methyl-4-piperidyl)-2-methoxy-phenyl]-1H-pyrazol-3-yl]amino]pyrazine-2-carbonitrile]

Aqueous solubility mg/mL 24 h: 3.16 mg/mL
Structure (SMILES): COc1cc(C2(F)CCN(C)CC2)ccc1-c1cc(Nc2cnc(C#N)cn2)n[nH]1 [oxalate pattern A, 5-[[5-[4-(4-fluoro-1-methyl-4-piperidyl)-2-methoxy-phenyl]-1H-pyrazol-3-yl]amino]pyrazine-2-carbonitrile]

Aqueous solubility mg/mL 24 h: 0.15 mg/mL
Structure (SMILES): COc1cc(C2(F)CCN(C)CC2)ccc1-c1cc(Nc2cnc(C#N)cn2)n[nH]1 [bis-maleate pattern B, 5-[[5-[4-(4-fluoro-1-methyl-4-piperidyl)-2-methoxy-phenyl]-1H-pyrazol-3-yl]amino]pyrazine-2-carbonitrile]
